A short description of data set [1]: Chemical stability in human blood plasma. It counts as in vitro ADME. Conditions: pooled human blood plasma; 10 μm; 4 hours at 37° C.; substance amount remaining. In a few lines:
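Percent of parent remaining was derived by comparing HPLC peak areas at time zero and after 4 h at 37 °C. Test compound was at 10 μM in human plasma pooled from ten donors, and proteins were precipitated with acetonitrile before analysis.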

Data set [2] has as its target T1, DM EGFR (DoubleMutantEGFR, L828R/T790M) (Homo sapiens, UniProt P00533, L858R/T790M).
T1 construct: purchased SignalChem
In words: Inhibition of DM EGFR kinase activity (ADP-Glo). It counts as biochemical. As to conditions: for IC50: inhibition of kinase activity, EGFR DM (L828R/T790M); for SI, IC50(WT)/IC50(DM): selectivity index, kinase EGFR WT vs EGFR DM. In a few lines: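 Luminescent ADP-Glo readout was used for both wild-type and L858R/T790M EGFR, each run 180 minutes at 37° C. Reactions used a solution of 50 μM ATP with 0.5 mg/mL peptide substrate. Four-parameter logistic curves gave IC50.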
(In general: ADP-Glo turns the ADP formed in a reaction into a luminescent signal.)

Data set [3] relates to HCC827 (lung adenocarcinoma, SM, exon19delE746-A750). In words: Antiproliferative activity on HCC827 cells (Alamar Blue). Conditions: Homo sapiens, antiproliferative test. The format is cell-based. In a few lines: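 HCC827 cells (EGFR exon19del E746-A750), 10×10^3/well, attached 16–18 h, then exposed to compounds for 72 h at 37 °C in RPMI-1640 with 2% FBS, ≤1% DMSO. Viability by Alamar Blue fluorescence (ex 540/em 590 nm) after 3–5 h; IC50 by four-parameter logistic fit.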
On the technique in general: Alamar Blue is a resazurin reagent that responds to reducing activity.

Data set [4] in a line: Permeability through monolayer of Caco-2 cells. It counts as in vitro ADME. As to conditions: human, Caco-2 monolayer; for Papp A→B at 2 h, 10 µM: pH 6.5 upper / pH 7.4 lower, 2 h at 37° C.; for efflux ratio at 2 h, 10 µM: Papp B-A/Papp A-B. From the text: 2) Assessment of permeability through monolayer of Caco-2 cells.
Assessment of permeability through the monolayer of Caco-2 cells allows to evaluate the ability of the candidate compounds to penetrate through biological membranes by active and passive transport.
Caco-2, the cells of the intestinal epithelium, had been cultured in transwell plate inserts with the filters (with pores of 0.4 μm, BD Falcon with High Density) for 21 days, and then the integrity of the monolayer were estimated with Lucifer Yellow (Sigma-Aldrich, USA) by standard protocol. When setting the A→B transfer (“intestinal lumen”—“blood stream” transfer), solutions of test substances were added in a buffer with pH 6.5 (HBSS, 10 mM HEPES, 15 mM glucose solution) with the concentration of 10 μM into the upper chamber; the lower chamber was filled with a buffer with pH 7.4 (HBSS, 10 mM HEPES, 15 mM Glucose, 1% BSA). When setting B→A transfer (“blood stream”—“intestinal lumen” transfer), the upper chamber was filled with the buffer with pH 6.5, and solutions of the test substances were added in the buffer with pH 7.4 at the concentration of 10 μM in the lower chamber. Propranolol was used as a control substance (as it has high permeability).
After incubating for 2 h at 37° C. under 5% CO2, the amounts of test substances were determined in the upper and lower chambers by HPLC using Agilent1200 chromatograph (Agilent, USA) with preliminary protein precipitation with acetonitrile. We used gradient elution (1 mL/min flow rate). We determined the areas of peaks corresponding to the compounds. On the basis of peak areas in the calibration standards we determined the concentration of compound in the initial solution and in the samples from the wells of the upper and lower chambers. Papp, permeability through the cell layer, was calculated using the following formula:
Papp=(C(t)*V)/(C(0)*t*Area), wherein
The value was calculated with the following formula:
efflux=Papp B-A/Papp A-B, wherein • Papp A-B—the volume of permeability in A→B test; • Papp B-A—he volume of permeability in B→A test.
(Caco-2 monolayers are a common model of the intestinal barrier.)

Structures are written as SMILES. Counter-ions that a name gives are not always drawn.

The term IC50 denotes the concentration that inhibits the measured activity by half. Read a low IC50 as greater potency. Take `C=CC(=O)Nc1cc(Nc2cc(C(=O)c3ccc(N4CC(OC)C4)cc3)ccn2)c(OC)cc1N(C)CCN(C)C` (racemic) [EGFR_3365_53, N-(2-((2-(dimethylamino)ethyl)(methyl)amino)-4-methoxy-5-((4-(4-(3-methoxyazetidin-1-yl)benzoyl)pyridin-2-yl)amino)phenyl)acrylamide]: in data set [1], the “Stability in blood plasma, %” value is reported as 91.8%. In data set [2], half-maximal inhibition (IC50) was put at 0.00731 µM and the “SI, IC50(WT)/IC50(DM)” value is 25.06. The same compound came in with an IC50 in data set [3] of 0.0266 µM.

As usually defined, the Papp A→B is the apparent permeability from the apical to the basolateral side of a cell layer. Read a high Papp A→B as fast passage. One may read the efflux ratio as a quotient of directional permeabilities that is used to spot active efflux. Turning to `C=CC(=O)Nc1cc(Nc2nccc(C(=O)c3ccccc3C(F)(F)F)n2)c(OC)cc1N(C)CCN(C)C` [EGFR_3365, N-(2-((2-(dimethylamino)ethyl) (methyl)amino)-4-methoxy-5-((4-(2-(trifluoromethyl)benzoyl)pyrimidin-2-yl)amino)phenyl)acrylamide], the “Stability in blood plasma, %” value in data set [1] turned out to be 90.3%. Also, in data set [4], the apical-to-basolateral permeability (Papp A→B) at 2 h, 10 µM is 52.8 nm/s and the efflux ratio at 2 h, 10 µM was 1.29. Also, in data set [2], the concentration for half-maximal inhibition (IC50) was determined as 0.022 µM and the “SI, IC50(WT)/IC50(DM)” value came to 26.69. This compound also had a half-maximal inhibitory concentration (IC50) in data set [3] of 0.0143 µM.

With `C=CC(=O)Nc1cc(Nc2cc(C(=O)c3ccc(N(C)C)cc3)ccn2)c(OC)cc1N(C)CCN(C)C.O=C(O)C(F)(F)F` [EGFR_3365_4, N-(5-((4-(4-(dimethylamino)benzoyl)pyridin-2-yl)amino)-2-((2-(dimethylamino)ethyl) (methyl)amino)-4-methoxyphenyl)acrylamide 2,2,2-trifluoroacetate], in data set [4], the Papp A→B at 2 h, 10 µM worked out at 28.6 nm/s and the efflux ratio at 2 h, 10 µM amounted to 2. In data set [2], the midpoint of inhibition, the IC50, lay at 0.0214 µM and the “SI, IC50(WT)/IC50(DM)” value is on record as 10.79. The same compound came in with an IC50 in data set [3] of 0.0153 µM.

Regarding `C=CC(=O)Nc1cc(Nc2nccc(C(=O)c3ccc(OCc4ccccc4)cc3)n2)c(OC)cc1N(C)CCN(C)C` [EGFR_3365_16, N-(5-((4-(4-(benzyloxy)benzoyl)pyrimidin-2-yl)amino)-2-((2-(dimethylamino)ethyl)(methyl)amino)-4-methoxyphenyl)acrylamide], the “Stability in blood plasma, %” value in data set [1] came out at 83.5%. Besides, the figures for the IC50 in data set [2] and in data set [3] were 0.0328 µM and 0.01 µM, respectively. For the same compound, the “SI, IC50(WT)/IC50(DM)” value in data set [2] is recorded as 4.70.

With `C=CC(=O)Nc1cc(Nc2nccc(C(=O)c3ccc(Oc4ccccc4)cc3)n2)c(OC)cc1N(C)CCN(C)C` [EGFR_3365_17, N-(2-((2-(dimethylamino)ethyl)(methyl)amino)-4-methoxy-5-((4-(4-phenoxybenzoyl)pyrimidin-2-yl)amino)phenyl)acrylamide], in data set [1], the “Stability in blood plasma, %” value was determined as 97.0%. Moreover, in data set [2], the IC50 was 0.0215 µM and the “SI, IC50(WT)/IC50(DM)” value is on record as 7.95. The half-inhibitory concentration (IC50) in data set [3] was found to be 0.0413 µM.

For the compound `C=CC(=O)Nc1cc(Nc2nccc(C(=O)c3ccc(OCCC)cc3)n2)c(OC)cc1N(C)CCN(C)C` [EGFR_3365_30, N-(2-((2-(dimethylamino)ethyl)(methyl)amino)-4-methoxy-5-((4-(4-propoxybenzoyl)pyrimidin-2-yl)amino)phenyl)acrylamide], in data set [4], the apical-to-basolateral permeability (Papp A→B) at 2 h, 10 µM was found to be 43.6 nm/s and the efflux ratio at 2 h, 10 µM came to 0.5. In addition, in data set [2], the IC50 is 0.00769 µM and the “SI, IC50(WT)/IC50(DM)” value was found to be 79.77. Further, in data set [3], the half-inhibitory concentration (IC50) turned out to be 0.002 µM.

In the case of `C=CC(=O)Nc1cc(Nc2cc(C(=O)c3ccc(OC)cc3)ccn2)c(OC)cc1N(C)CCN(C)C` [EGFR_3365_51, N-(2-((2-(dimethylamino)ethyl)(methyl)amino)-4-methoxy-5-((4-(4-methoxybenzoyl)pyridin-2-yl)amino)phenyl)acrylamide], in data set [4], the apparent permeability from apical to basolateral (Papp A→B) at 2 h, 10 µM came out at 32 nm/s and the efflux ratio at 2 h, 10 µM was 1.7. For the same compound, in data set [2], the half-inhibitory concentration (IC50) was found to be 0.00472 µM and the “SI, IC50(WT)/IC50(DM)” value is listed as 10.75. The same compound showed an IC50 in data set [3] of 0.0086 µM.

On to `C=CC(=O)Nc1cc(Nc2cc(C(=O)c3ccc(OCC)cc3)ccn2)c(OC)cc1N(C)CCN(C)C` [EGFR_3365_52, N-(2-((2-(dimethylamino)ethyl)(methyl)amino)-5-((4-(4-ethoxybenzoyl)pyridin-2-yl)amino)-4-methoxyphenyl) acrylamide], for which, in data set [4], the Papp A→B at 2 h, 10 µM came out at 30 nm/s and the efflux ratio at 2 h, 10 µM turned out to be 1.2. In data set [2], it took 0.00641 µM to reach half-maximal inhibition (IC50) and the “SI, IC50(WT)/IC50(DM)” value is recorded as 10.58. In data set [3], this compound returned an IC50 of 0.0225 µM.

With `C=CC(=O)Nc1cc(Nc2cc(C(=O)c3ccc(N4CCN(C)CC4)cc3)ccn2)c(OC)cc1N(C)CCN(C)C` [EGFR_3365_55, N-(2-((2-(dimethylamino)ethyl)(methyl)amino)-4-methoxy-5-((4-(4-(4-methylpiperazin-1-yl)benzoyl)pyridin-2-yl)amino)phenyl)acrylamide], in data set [1], the “Stability in blood plasma, %” value worked out at 84.8%. Also, in data set [2], the midpoint of inhibition, the IC50, lay at 0.0254 µM and the “SI, IC50(WT)/IC50(DM)” value amounted to 3.02. The same compound had a concentration for half-maximal inhibition (IC50) in data set [3] of 0.0201 µM.

`C=CC(=O)Nc1cc(Nc2nccc(C(=O)c3ccc(N4CCN(C)CC4)cc3)n2)c(OC)cc1N(C)CCN(C)C` [EGFR_3365_62, N-(2-((2-(dimethylamino)ethyl)(methyl)amino)-4-methoxy-5-((4-(4-(4-methylpiperazin-1-yl)benzoyl)pyrimidin-2-yl)amino)phenyl)acrylamide formate]: the “Stability in blood plasma, %” value in data set [1] is 98.4%. In addition, the results for the IC50 in data set [2] and in data set [3] were 0.00658 µM and 0.0121 µM, respectively. Moreover, the “SI, IC50(WT)/IC50(DM)” value in data set [2] is listed as 19.37.

`C=CC(=O)Nc1cc(Nc2nccc(C(=O)c3ccc(OCC)cc3OCC)n2)c(OC)cc1N(C)CCN(C)C` [EGFR_3365_68, N-(5-((4-(2,4-diethoxybenzoyl)pyrimidin-2-yl)amino)-2-((2-(dimethylamino)ethyl) (methyl)amino)-4-methoxyphenyl)acrylamide]: the “Stability in blood plasma, %” value in data set [1] came out at 78.4%. Moreover, in data set [2], the IC50 came to 0.00903 µM and the “SI, IC50(WT)/IC50(DM)” value came to 10.40. In data set [3], this compound gave an IC50 of 0.0191 µM.

Consider `C=CC(=O)Nc1cc(Nc2nccc(C(=O)c3ccc(OC)cc3OC)n2)c(OC)cc1N(C)CCN(C)C` [EGFR_3365_69, N-(5-((4-(2,4-dimethoxybenzoyl)pyrimidin-2-yl)amino)-2-((2-(dimethylamino)ethyl)(methyl)amino)-4-methoxyphenyl)acrylamide], for which the “Stability in blood plasma, %” value in data set [1] is recorded as 100.0%. Further, in data set [2], the IC50 came to 0.00259 µM and the “SI, IC50(WT)/IC50(DM)” value is 9.12. The IC50 in data set [3] was found to be 0.00246 µM.

On to `C=CC(=O)Nc1cc(Nc2cc(C(=O)c3ccc(-c4cnn(C)c4)cc3)ccn2)c(OC)cc1N(C)CCN(C)C` [EGFR_3365_85, N-(2-((2-(dimethylamino)ethyl)(methyl)amino)-4-methoxy-5-((4-(4-(1-methyl-1H-pyrazol-4-yl)benzoyl)pyridin-2-yl)amino)phenyl) acrylamide], for which the “Stability in blood plasma, %” value in data set [1] was determined as 100.0%. Further, in data set [2], the half-inhibitory concentration (IC50) stood at 0.00836 µM and the “SI, IC50(WT)/IC50(DM)” value turned out to be 7.17. Further, the half-inhibitory concentration (IC50) in data set [3] is 0.018 µM.

Consider `C=CC(=O)Nc1cc(Nc2nccc(C(=O)c3cc4ccccc4n3C)n2)c(OC)cc1N(C)CCN(C)C` [EGFR_3365_94, N-(2-((2-(dimethylamino)ethyl) (methyl)amino)-4-methoxy-5-((4-(1-methyl-1H-indole-2-carbonyl)pyrimidin-2-yl)amino)phenyl)acrylamide], for which, in data set [1], the “Stability in blood plasma, %” value worked out at 83.3%. In data set [4], the Papp A→B at 2 h, 10 µM is 65.4 nm/s and the efflux ratio at 2 h, 10 µM was found to be 0.86. For the same compound, in data set [2], the IC50 was determined as 0.00141 µM and the “SI, IC50(WT)/IC50(DM)” value is 18.02.

For `C=CC(=O)Nc1cc(Nc2nccc(C(=O)c3ccc(OC)cc3OCCC)n2)c(OC)cc1N(C)CCN(C)C` [EGFR_3365_102, N-(2-((2-(dimethylamino)ethyl)(methyl)amino)-4-methoxy-5-((4-(4-methoxy-2-propoxybenzoyl)pyrimidin-2-yl)amino)phenyl)acrylamide], the “Stability in blood plasma, %” value in data set [1] was found to be 82.7%. For the same compound, in data set [4], the Papp A→B at 2 h, 10 µM came to 275 nm/s and the efflux ratio at 2 h, 10 µM was determined as 1.62. In addition, in data set [2], half-maximal inhibition (IC50) required 0.0112 µM and the “SI, IC50(WT)/IC50(DM)” value was 18.40.

Values taken from patent US20200339544A1 (JOINT STOCK COMPANY "BIOCAD", priority 2017, published 2020).
